Assays:
Type in all cases: in vivo
[1] = system: Chilo suppressalis (Striped Rice Stemborer); assay: Example B3: Chilo suppressalis (striped rice stemborer), artificial diet, L2 larvae; details: 144 h, application rate of 200 ppm, 6 days after infestation, L2 larvae, read-out: control in at least one of the three categories (mortality, anti-feedant effect, or growth inhibition)
In short: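 First, artificial diet was treated with aqueous solutions prepared from 10'000 ppm DMSO stocks; second, after drying, L2 larvae (6-8/well) were added; third, effects were assessed at 6 days against untreated controls, counting control when any of three categories was higher.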

[2] = system: Diabrotica Balteata (Corn Root Worm); assay: Example B1: Diabrotica balteata (corn root worm), maize sprouts sprayed, L2 larvae; details: 96 h, application rate of 200 ppm, 4 days after infestation, L2 larvae, read-out: control in at least one of the two categories (mortality or growth inhibition)
In short: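 Maize sprouts on agar were sprayed with aqueous test solutions made from 10′000 ppm DMSO stocks, dried, then infested with 6 to 10 L2 larvae per well. Mortality and growth inhibition were scored against untreated samples 4 days after infestation.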

[3] = system: Plutella xylostella (Diamond Back Moth); assay: Example B4: Plutella xylostella (diamond back moth), artificial diet, eggs, 24-well; details: 192 h, application rate of 200 ppm, 8 days after infestation, eggs, read-out: control in at least one of the two categories (mortality or growth inhibition)
Procedure: 24-well microtiter plates with artificial diet were treated with aqueous test solutions prepared from 10′000 ppm DMSO stock solutions by pipetting. After drying, Plutella eggs were pipetted through a plastic stencil onto a gel blotting paper and the plate was closed with it. The samples were assessed for mortality and growth inhibition in comparison to untreated samples 8 days after infestation.

[4] = system: Spodoptera littoralis (Egyptian Cotton Leaf Worm); assay: Example B7: Spodoptera littoralis (Egyptian cotton leaf worm), cotton leaf discs sprayed, L1 larvae; details: foliar, 72 h, application rate of 200 ppm, 3 days after infestation, L1 larvae, read-out: control in at least one of the three categories (mortality, anti-feedant effect, or growth inhibition)
In short: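 Leaf discs on agar sprayed with aqueous dilutions of 10′000 ppm DMSO stocks, dried, then infested with five L1 larvae. Mortality, anti-feeding and growth inhibition scored versus untreated 3 days after infestation; control given when any category exceeds untreated.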

CC(Nc1ncnc2c(C(F)(F)F)cc(Cl)cc12)c1nccnc1-n1nccn1 (centres unmarked) [P.39, 6-chloro-N-[1-[3-(triazol-2-yl)pyrazin-2-yl]ethyl]-8-(trifluoromethyl)quinazolin-4-amine]
≥ 80%: percent control (mortality, anti-feedant effect or growth inhibition) at 200 ppm [1] | percent control (mortality or growth inhibition) at 200 ppm [2] | percent control (mortality or growth inhibition) at 200 ppm [3] | percent control (mortality, anti-feedant effect or growth inhibition) at 200 ppm [4]

CC(Nc1ncnc2c(Br)cc(Br)cc12)c1nccnc1-n1nccn1 (centres unmarked) [P.37, 6,8-dibromo-N-[1-[3-(triazol-2-yl)pyrazin-2-yl]ethyl]quinazolin-4-amine]
≥ 80%: percent control (mortality, anti-feedant effect or growth inhibition) at 200 ppm [1] | percent control (mortality or growth inhibition) at 200 ppm [2] | percent control (mortality or growth inhibition) at 200 ppm [3] | percent control (mortality, anti-feedant effect or growth inhibition) at 200 ppm [4]

CC(Nc1ncnc2c(Cl)cc(C(F)(F)F)cc12)c1ncnn1-c1ccc(F)cn1 (centres unmarked) [P.274, 8-chloro-N-[1-[2-(5-fluroo-2-pyridyl)-1,2,4-triazol-3-yl]ethyl]-6-(trifluoromethyl)quinazolin-4-amine]
≥ 80%: percent control (mortality, anti-feedant effect or growth inhibition) at 200 ppm [1] | percent control (mortality or growth inhibition) at 200 ppm [2] | percent control (mortality or growth inhibition) at 200 ppm [3] | percent control (mortality, anti-feedant effect or growth inhibition) at 200 ppm [4]

CC(Nc1ncnc2c(Br)cc(Br)cc12)c1nccnc1-c1ncccn1 (centres unmarked) [P.38, 6,8-dibromo-N-[1-(3-pyrimidin-2-ylpyrazin-2-yl)ethyl]quinazolin-4-amine]
≥ 80%: percent control (mortality, anti-feedant effect or growth inhibition) at 200 ppm [1] | percent control (mortality or growth inhibition) at 200 ppm [2] | percent control (mortality or growth inhibition) at 200 ppm [3] | percent control (mortality, anti-feedant effect or growth inhibition) at 200 ppm [4]

CC(Nc1ncnc2c(C(F)(F)F)cc(Br)cc12)c1nccnc1-c1ccc(C#N)cn1 (centres unmarked) [P.119, 6-[3-[1-[[6-bromo-8-(trifluoromethyl)quinazolin-4-yl]amino]ethyl]pyrazin-2-yl]pyridine-3-carbonitrile]
≥ 80%: percent control (mortality, anti-feedant effect or growth inhibition) at 200 ppm [1] | percent control (mortality or growth inhibition) at 200 ppm [2] | percent control (mortality or growth inhibition) at 200 ppm [3] | percent control (mortality, anti-feedant effect or growth inhibition) at 200 ppm [4]

CC(c1nc(Br)nn1-c1ncccn1)N(C)c1ncnc2c(C(F)(F)F)cc(C(F)(F)F)cc12 (centres unmarked) [P.4, N-[1-(5-bromo-2-pyrimidin-2-yl-1,2,4-triazol-3-yl)ethyl]-N-methyl-6,8-bis(trifluoromethyl)quina-zolin-4-amine]
≥ 80%: percent control (mortality, anti-feedant effect or growth inhibition) at 200 ppm [1] | percent control (mortality or growth inhibition) at 200 ppm [2] | percent control (mortality or growth inhibition) at 200 ppm [3] | percent control (mortality, anti-feedant effect or growth inhibition) at 200 ppm [4]

CC(c1ncnn1-c1ccc(Br)cn1)N(C)c1ncnc2c(Br)cc(C(F)(F)F)cc12 (centres unmarked) [P.239, 8-bromo-N-[1-[2-(5-bromo-2-pyridyl)-1,2,4-triazol-3-yl]ethyl]-N-methyl-6-(trifluoromethyl)quinazolin-4-amine]
≥ 80%: percent control (mortality, anti-feedant effect or growth inhibition) at 200 ppm [1] | percent control (mortality or growth inhibition) at 200 ppm [2] | percent control (mortality or growth inhibition) at 200 ppm [3] | percent control (mortality, anti-feedant effect or growth inhibition) at 200 ppm [4]

CC(Nc1ncnc2c(C(F)(F)F)cc(Cl)cc12)c1ncnn1-c1ccc(OC(F)F)cn1 (centres unmarked) [P.235, 6-chloro-N-[1-[2-[5-(difluoromethoxy)-2-pyridyl]-1,2,4-triazol-3-yl]ethyl]-8-(trifluoromethyl)quinazolin-4-amine]
≥ 80%: percent control (mortality, anti-feedant effect or growth inhibition) at 200 ppm [1] | percent control (mortality or growth inhibition) at 200 ppm [2] | percent control (mortality or growth inhibition) at 200 ppm [3] | percent control (mortality, anti-feedant effect or growth inhibition) at 200 ppm [4]

CC(c1ncnn1-c1ccc(Br)cn1)N(C)c1ncnc2c(C(F)(F)F)cc(Cl)cc12 (centres unmarked) [P.238, N-[1-[2-(5-bromo-2-pyridyl)-1,2,4-triazol-3-yl]ethyl]-6-chloro-N-methyl-8-(trifluoromethyl)quinazolin-4-amine]
≥ 80%: percent control (mortality, anti-feedant effect or growth inhibition) at 200 ppm [1] | percent control (mortality or growth inhibition) at 200 ppm [2] | percent control (mortality or growth inhibition) at 200 ppm [3] | percent control (mortality, anti-feedant effect or growth inhibition) at 200 ppm [4]

CC(Nc1ncnc2c(C(F)(F)F)cc(C(F)(F)F)cc12)c1nccnc1-n1nccn1 (centres unmarked) [P.56, N-[1-[3-(triazol-2-yl)pyrazin-2-yl]ethyl]-6,8-bis(trifluoromethyl)quina-zolin-4-amine]
≥ 80%: percent control (mortality, anti-feedant effect or growth inhibition) at 200 ppm [1] | percent control (mortality or growth inhibition) at 200 ppm [2] | percent control (mortality or growth inhibition) at 200 ppm [3] | percent control (mortality, anti-feedant effect or growth inhibition) at 200 ppm [4]

CC(Nc1ncnc2c(OC(F)F)cc(Br)cc12)c1nccnc1-n1nccn1 (centres unmarked) [P.31, 6-bromo-8-(difluoromethoxy)-N-[1-[3-(triazol-2-yl)pyrazin-2-yl]ethyl]quinazolin-4-amine]
≥ 80%: percent control (mortality, anti-feedant effect or growth inhibition) at 200 ppm [1] | percent control (mortality or growth inhibition) at 200 ppm [2] | percent control (mortality or growth inhibition) at 200 ppm [3] | percent control (mortality, anti-feedant effect or growth inhibition) at 200 ppm [4]

CC(c1nccnc1-c1ccc(OC(F)F)cn1)N(C)c1ncnc2c(Cl)cc(C(F)(F)F)cc12 (centres unmarked) [P.112, 8-chloro-N-[1-[3-[5-(difluroomethoxy)-2-pyridyl]pyrazin-2-yl]ethyl]-N-methyl-6-(trifluoromethyl)quinazolin-4-amine]
≥ 80%: percent control (mortality, anti-feedant effect or growth inhibition) at 200 ppm [1] | percent control (mortality or growth inhibition) at 200 ppm [2] | percent control (mortality or growth inhibition) at 200 ppm [3] | percent control (mortality, anti-feedant effect or growth inhibition) at 200 ppm [4]

C[C@H](Nc1ccnc2c(C(F)(F)F)cc(Br)cc12)c1ncnn1-c1ccc(C#N)cn1 [P.252, 6-[5-[(1S)-1-[[6-bromo-8-(trifluoromethyl)-4-quinolyl]amino]ethyl]-1,2,4-triazol-1-yl]pyridine-3-carbonitrile]
≥ 80%: percent control (mortality, anti-feedant effect or growth inhibition) at 200 ppm [1] | percent control (mortality or growth inhibition) at 200 ppm [2] | percent control (mortality or growth inhibition) at 200 ppm [3] | percent control (mortality, anti-feedant effect or growth inhibition) at 200 ppm [4]

C[C@H](Nc1ccnc2c(C(F)(F)F)cc(C(F)(F)F)cc12)c1ncnn1-c1ncccn1 [P.5, N-[(1S)-1-(2-pyrimidin-2-yl-1,2,4-triazol-3-yl)ethyl]-6,8-bis(trifluoromethyl)quinolin-4-amine]
≥ 80%: percent control (mortality, anti-feedant effect or growth inhibition) at 200 ppm [1] | percent control (mortality or growth inhibition) at 200 ppm [2] | percent control (mortality or growth inhibition) at 200 ppm [3] | percent control (mortality, anti-feedant effect or growth inhibition) at 200 ppm [4]

CC(Nc1ncnc2c(Br)cc(C(F)(F)F)cc12)c1nccnc1-c1ncccn1 (centres unmarked) [P.96, 8-bromo-N-[1-(3-pyrimidin-2-ylpyrazin-2-yl)ethyl]-6-(trifluoromethyl)quinazolin-4-amine]
≥ 80%: percent control (mortality, anti-feedant effect or growth inhibition) at 200 ppm [1] | percent control (mortality or growth inhibition) at 200 ppm [2] | percent control (mortality or growth inhibition) at 200 ppm [3] | percent control (mortality, anti-feedant effect or growth inhibition) at 200 ppm [4]

CC(Nc1ncnc2c(C(F)(F)F)cc(Cl)cc12)c1nccnc1-c1ccc(OC(F)F)cn1 (centres unmarked) [P.120, 6-chloro-N-[1-[3-[5-(difluoromethoxy)-2-pyridyl]pyrazin-2-yl]ethyl]-8-(trifluoromethyl)quinazolin-4-amine]
≥ 80%: percent control (mortality, anti-feedant effect or growth inhibition) at 200 ppm [1] | percent control (mortality or growth inhibition) at 200 ppm [2] | percent control (mortality or growth inhibition) at 200 ppm [3] | percent control (mortality, anti-feedant effect or growth inhibition) at 200 ppm [4]

CC(c1nccnc1-c1ncccn1)N(C)c1ccnc2c(C(F)(F)F)cc(C(F)(F)F)cc12 (centres unmarked) [P.249, N-methyl-N-[1-(3-pyrimidin-2-ylpyrazin-2-yl)ethyl]-6,8-bis(trifluoromethyl)quino-lin-4-amine]
≥ 80%: percent control (mortality, anti-feedant effect or growth inhibition) at 200 ppm [1] | percent control (mortality or growth inhibition) at 200 ppm [2] | percent control (mortality or growth inhibition) at 200 ppm [3] | percent control (mortality, anti-feedant effect or growth inhibition) at 200 ppm [4]

CC(c1nccnc1-n1nccn1)N(C)c1ncnc2c(Cl)cc(C(F)(F)F)cc12 (centres unmarked) [P.102, 8-chloro-N-methyl-N-[1-[3-(triazol-2-yl)pyrazin-2-yl]ethyl]-6-(trifluoromethyl)quinazolin-4-amine]
≥ 80%: percent control (mortality, anti-feedant effect or growth inhibition) at 200 ppm [1] | percent control (mortality or growth inhibition) at 200 ppm [2] | percent control (mortality or growth inhibition) at 200 ppm [3] | percent control (mortality, anti-feedant effect or growth inhibition) at 200 ppm [4]

CC(c1nccnc1-c1ncccn1)N(CC1CC1)c1ncnc2c(C(F)(F)F)cc(C(F)(F)F)cc12 (centres unmarked) [P.108, N-(cyclopropylmethyl)-N-[1-(3-pyrimidin-2-ylpyrazin-2-yl)ethyl]-6,8-bis(trifluoromethyl)quina-zolin-4-amine]
≥ 80%: percent control (mortality, anti-feedant effect or growth inhibition) at 200 ppm [1] | percent control (mortality or growth inhibition) at 200 ppm [2] | percent control (mortality or growth inhibition) at 200 ppm [3] | percent control (mortality, anti-feedant effect or growth inhibition) at 200 ppm [4]

CC(c1ncnn1-c1ccc(Br)cn1)N(C)c1ncnc2c(C(F)(F)F)cc(C(F)(F)F)cc12 (centres unmarked) [P.241, N-[1-[2-(5-bromo-2-pyridyl)-1,2,4-triazol-3-yl]ethyl]-N-methyl-6,8-bis(trifluoromethyl)quina-zolin-4-amine]
≥ 80%: percent control (mortality, anti-feedant effect or growth inhibition) at 200 ppm [1] | percent control (mortality or growth inhibition) at 200 ppm [2] | percent control (mortality or growth inhibition) at 200 ppm [3] | percent control (mortality, anti-feedant effect or growth inhibition) at 200 ppm [4]

— patent publication US20230002359A1, “PESTICIDALLY ACTIVE FUSED BICYCLIC HETEROAROMATIC COMPOUNDS” (priority 2019, published 2023)
